Results on three compounds are retold here after publication PMC8480901 (PLoS ONE, 2021).

Read-outs that look alike come from different tables or passages of the source.

One may read the Tmax as the time from dosing to the highest level. The Cmax is the highest concentration seen after dosing.

The nature of series [1]: Pharmacokinetics in plasma and epithelial lining fluid of mice after a single SC dose. The series is classed as in vivo, BALB/c mice. Conditions: for AUC0-24h/Dose, mean / Kp / Tmax / AUC(0-t) / Cmax / distribution from plasma to ELF (penetration into the lung compartment): mice; for AUC0-24h/Dose, mean / Kp / Tmax / AUC(0-t) / Cmax: single 35 mg/kg SC; for Kp / Tmax / AUC(0-t) / Cmax: female, BALB/c, mouse; for Kp: epithelial lining fluid (ELF) / plasma, read-out: AUC ratio for ELF to plasma; for AUC(0-t): read-out: AUC0-24h, mean±SEM; for Cmax: read-out: Cmax, mean±SEM; for distribution from plasma to ELF (penetration into the lung compartment): single SC dose 35 mg/kg. As for the experimental part: Pharmacokinetic parameters were evaluated as previously described. […] Plasma samples were analyzed by liquid chromatography with […] mass spectrometry (Q Exactive Plus; Thermo Fisher Scientific).
Area under the curve (AUC) values were determined using the linear trapezoidal method.

The conditions of series [2]: cited from earlier work.
For series [3], the system named is LPS-induced acute lung injury. The following applies: cited from earlier work.
Setting [4] is: epithelial lining fluid (ELF), ELF.

As for `CC[C@H]1OC(=O)[C@H](C)[C@@H](O[C@H]2C[C@@](C)(OC)[C@@H](O)[C@H](C)O2)[C@H](C)[C@@H](O[C@@H]2O[C@H](C)C[C@H](N(C)C)[C@H]2O)[C@](C)(O)C[C@@H](C)CN(C)[C@H](C)[C@@H](O)[C@]1(C)O` [Azithromycin], in series [1] (ELF), the “AUC0-24h/Dose, mean” value is 0.76 (μg∙h/mL)/(mg/kg). In series [1], the Kp was ~2 and the “distribution from plasma to ELF (penetration into the lung compartment)” value is reported as “rapid penetration”. For the same compound, in series [1] (setting [4]), the time of peak concentration (Tmax) came to 15 min, the AUC(0-t) was determined as 26700 ± 5780 ng·h/mL and the Cmax was 2350 ± 1450 ng/mL. Further, in series [1] (plasma), the time to peak (Tmax) stood at 4.8 min; the AUC(0-t) was 11600 ± 1370 ng·h/mL; the Cmax turned out to be 2330 ± 830 ng/mL; the “AUC0-24h/Dose, mean” value is given as 0.33 (μg∙h/mL)/(mg/kg). Besides, in series [2] (500 mg IV daily), the “increase in AUC, first to fifth daily dose” value is on record as 61% and the “increase in maximum observed plasma concentration, first to fifth daily dose” value was 8%. For the same compound, the “plasma exposure (AUC)” value in series [2] (500-mg IV 3-hour infusion, healthy volunteers) was 5000 ng·h/mL. Further, the neutrophil recruitment result in series [3] (pretreatment in LPS-induced acute lung injury models) is given as “significantly reduced”.

As for `C[C@@H]1C[C@H]2[C@@H]3CCC4=CC(=O)C=C[C@]4(C)[C@@]3(F)[C@@H](O)C[C@]2(C)[C@@]1(O)C(=O)CO` [Dexamethasone], in series [3] (pretreated mice vs no-treatment control group), the “LPS-induced pulmonary edema, accumulation of inflammatory cells in BALF, and increased inflammatory cytokines (eg, TNF-α and IL-6)” value is on record as “significantly attenuated”.

With `C=C[C@]1(C)C[C@@H](OC(=O)CS[C@@H]2CC[C@@H](N)C[C@H]2O)[C@]2(C)[C@H](C)CC[C@]3(CCC(=O)[C@H]32)[C@@H](C)[C@@H]1O` [Lefamulin], in series [1] (35 mg/kg SC in mice, human data ref 29), the “plasma AUC0-24h in mice compared with exposures in healthy volunteers after a single dose of 150 mg IV” value is on record as “comparable”. Further, in series [1] (ELF), the “AUC0-24h/Dose, mean” value is given as 0.36 (μg∙h/mL)/(mg/kg). Besides, in series [1], the Kp was ~2 and the “distribution from plasma to ELF (penetration into the lung compartment)” value is given as “rapid penetration”. In series [1] (setting [4]), the Tmax came out at 30 min, the AUC(0-t) is 12600 ± 1170 ng·h/mL and the highest concentration (Cmax) amounted to 2160 ± 500 ng/mL. In series [1] (plasma), the time to peak (Tmax) was 30 min; the AUC(0-t) is 6250 ± 930 ng·h/mL; the peak concentration (Cmax) was 1330 ± 180 ng/mL; the “AUC0-24h/Dose, mean” value is 0.18 (μg∙h/mL)/(mg/kg).
